Test results reported in ChEMBL document CHEMBL3865826, “Synthesis and biological evaluation of a series of non-hemiacetal ester derivatives of artemisinin” (Eur J Med Chem, 2016).

Experiments:
[1] = Thermal stability of the compound assessed as onset of decomposition temperature by thermogravimetric analysis; assay type: physicochemical
[2] = Thermal stability of the compound assessed as melting point by thermogravimetric analysis; assay type: physicochemical
Plasmodium falciparum [3] = experiment: Antiplasmodial activity against chloroquine-sensitive asexual erythrocyte stage form Plasmodium falciparum NF54 measured after 48 hrs by pLDH assay; assay type: functional; conditions: NF54, 48 h
Plasmodium falciparum [4] = experiment: Antiplasmodial activity against chloroquine-resistant asexual erythrocyte stage form Plasmodium falciparum Dd2 measured after 48 hrs by pLDH assay; assay type: functional; conditions: Dd2, 48 h
[5] = Resistance index, ratio of IC50 for chloroquine-resistant asexual erythrocyte stage form Plasmodium falciparum Dd2 to IC50 for chloroquine-sensitive asexual erythrocyte stage form Plasmodium falciparum NF54; assay type: functional
[6] = Cytotoxicity against human WI38 cells assessed as reduction in cell viability measured after 48 hrs by SRB assay; assay type: toxicity, cell-based, WI-38
[7] = Cytotoxicity against CHO cells assessed as reduction in cell viability measured after 48 hrs by MTT assay; assay type: toxicity, cell-based, Cricetulus griseus; conditions: Chinese hamster
[8] = Selectivity index, ratio of IC50 for human WI38 cells to IC50 for chloroquine-sensitive asexual erythrocyte stage form Plasmodium falciparum NF54; assay type: toxicity, cell-based, WI-38; conditions: read-out: Ratio IC50
[9] = Selectivity index, ratio of IC50 for CHO cells to IC50 for chloroquine-sensitive asexual erythrocyte stage form Plasmodium falciparum NF54; assay type: toxicity, cell-based; conditions: hamster, read-out: Ratio IC50
[10] = Growth inhibition of human TK10 cells measured after 24 hrs by SRB assay; assay type: functional, cell-based; conditions: TK-10, 24 h
[11] = Growth inhibition of human UACC62 cells measured after 24 hrs by SRB assay; assay type: functional, cell-based; conditions: UACC-62, 24 h
[12] = Growth inhibition of human MCF7 cells measured after 24 hrs by SRB assay; assay type: functional, cell-based; conditions: MCF7, 24 h
WI-38 = experiment: Selectivity index, ratio of IC50 for human WI38 cells to IC50 for human TK10 cells; assay type: functional
UACC-62 = experiment: Selectivity index, ratio of IC50 for human WI38 cells to IC50 for human UACC62 cells; assay type: functional
MCF7 = experiment: Selectivity index, ratio of IC50 for human WI38 cells to IC50 for human MCF7 cells; assay type: functional
CHO [13] = experiment: Selectivity index, ratio of IC50 for CHO cells to IC50 for human TK10 cells; assay type: functional
CHO [14] = experiment: Selectivity index, ratio of IC50 for CHO cells to IC50 for human UACC62 cells; assay type: functional
CHO [15] = experiment: Selectivity index, ratio of IC50 for CHO cells to IC50 for human MCF7 cells; assay type: functional
[16] = Selectivity index, ratio of IC50 for human TK10 cells to IC50 for chloroquine-resistant asexual erythrocyte stage form Plasmodium falciparum Dd2; assay type: functional, TK-10
[17] = Selectivity index, ratio of IC50 for human UACC62 cells to IC50 for chloroquine-resistant asexual erythrocyte stage form Plasmodium falciparum Dd2; assay type: functional, UACC-62
[18] = Selectivity index, ratio of IC50 for human MCF7 cells to IC50 for chloroquine-resistant asexual erythrocyte stage form Plasmodium falciparum Dd2; assay type: functional
[19] = Thermal stability of the compound assessed as transition temperature by differential scanning calorimetry; assay type: physicochemical
[20] = Safety index, ratio of compound IC50 to emetine IC50 for human WI38 cells; assay type: ADME, cell-based, WI-38; conditions: read-out: Ratio IC50
[21] = Safety index, ratio of compound IC50 to emetine IC50 for CHO cells; assay type: ADME, cell-based, Cricetulus griseus; conditions: Chinese hamster, read-out: Ratio IC50
[22] = Thermal stability of the compound assessed as endotherm temperature by differential scanning calorimetry; assay type: physicochemical

SMILES | T [1] | Tm [2] | IC50 (Plasmodium falciparum [3]) | IC50 (Plasmodium falciparum [4]) | Ratio IC50 [5] | IC50 at 48 h [6] | IC50 at 48 h [7] | selectivity ratio [8] | selectivity ratio [9] | IC50 [10] | IC50 [11] | IC50 [12] | other results
C[C@@H]1CC[C@H]2C(C)(COC(=O)[C@@H]3CCCN3C(=O)C(F)(F)F)O[C@@H]3O[C@]4(C)CC[C@@H]1[C@]32OO4 (some centres not stated) | 126 °C | 172.2 °C | 7.9 nM | 7.8 nM | 1 | 31600 nM | 97100 nM | 4000 | 12300 | 13000 nM | 3000 nM | 2900 nM | Ratio IC50 (WI-38): 2; Ratio IC50 (UACC-62): 11; Ratio IC50 (MCF7): 11; Ratio IC50 (CHO [13]): 7.5; Ratio IC50 (CHO [14]): 32.4; Ratio IC50 (CHO [15]): 33.5; Ratio IC50 [16]: 1667; Ratio IC50 [17]: 385; Ratio IC50 [18]: 372; T [19]: 116 °C; selectivity ratio [20]: ≤ 600; selectivity ratio [21]: ≤ 600
CC(=O)OCC1(C)O[C@@H]2O[C@]3(C)CC[C@H]4[C@H](C)CC[C@@H]1[C@@]24OO3 (some centres not stated) | 164 °C | 171.2 °C | 11.2 nM | 12.6 nM | 1.1 | > 100000 nM | > 100000 nM | > 8920 | > 8920 | > 100000 nM | > 100000 nM | > 100000 nM | T [22]: 90 °C
